According to the supplement of paper PMC10307832:

Key:
Experiment in all cases: relative viability (nuclei count vs DMSO), 5 days (fraction); higher = more cells survive
NCI-H522 = tested on: NCI-H522
In short: (§1)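 Relative viability was taken as the ratio of nuclei in treated wells to nuclei in vehicle wells. Lung cancer cell lines in 1536-well plates received compounds by pin tool one day after seeding, either one drug alone or a fixed anchor-drug dose plus five library-drug doses (not always all listed) in √10 steps. Nuclei were counted on 4× images after 5 days of treatment, and values are medians of duplicate plates.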

NCI-H1993 = tested on: NCI-H1993
In short: as §1

NCI-H1648 = tested on: NCI-H1648
In short: as §1

NCI-H596 = tested on: NCI-H596
In short: as §1

NCI-H1623 = tested on: NCI-H1623
In short: as §1

NCI-H23 = tested on: NCI-H23
In short: as §1

Structure (SMILES): CC1(C)CCC(c2ccc(Cl)cc2)=C(CN2CCN(c3ccc(C(=O)NS(=O)(=O)c4ccc(N[C@H](CCN5CCOCC5)CSc5ccccc5)c(S(=O)(=O)C(F)(F)F)c4)cc3)CC2)C1 [Navitoclax] + Cc1cc(Nc2cc(N3CCN(C)CC3)nc(Sc3ccc(NC(=O)C4CC4)cc3)n2)n[nH]1 [Tozasertib] (partner 0.1 µM)
- relative viability (NCI-H522; first compound 0.005 µM): 0.574
- relative viability (NCI-H522; first compound 0.01581 µM): 0.535
- relative viability (NCI-H522; first compound 0.05 µM): 0.607
- relative viability (NCI-H522; first compound 0.1581 µM): 0.631
- relative viability (NCI-H522; first compound 0.5 µM): 0.669
- relative viability (NCI-H1993; first compound 0.005 µM): 0.596
- relative viability (NCI-H1993; first compound 0.01581 µM): 0.666
- relative viability (NCI-H1993; first compound 0.05 µM): 0.597
- relative viability (NCI-H1993; first compound 0.1581 µM): 0.522
- relative viability (NCI-H1993; first compound 0.5 µM): 0.595
- relative viability (NCI-H1648; first compound 0.005 µM): 0.609
- relative viability (NCI-H1648; first compound 0.01581 µM): 0.506
- relative viability (NCI-H1648; first compound 0.1581 µM): 0.459
- relative viability (NCI-H1648; first compound 0.5 µM): 0.575
- relative viability (NCI-H596; first compound 0.005 µM): 0.776
- relative viability (NCI-H596; first compound 0.01581 µM): 0.853
- relative viability (NCI-H596; first compound 0.1581 µM): 0.885
- relative viability (NCI-H596; first compound 0.5 µM): 1.03
- relative viability (NCI-H1623; first compound 0.005 µM): 0.406
- relative viability (NCI-H1623; first compound 0.01581 µM): 0.405
- relative viability (NCI-H1623; first compound 0.05 µM): 0.415
- relative viability (NCI-H1623; first compound 0.1581 µM): 0.464
- relative viability (NCI-H1623; first compound 0.5 µM): 0.4
- relative viability (NCI-H23; first compound 0.005 µM): 0.398
- relative viability (NCI-H23; first compound 0.01581 µM): 0.353
- relative viability (NCI-H23; first compound 0.05 µM): 0.336
- relative viability (NCI-H23; first compound 0.1581 µM): 0.325
- relative viability (NCI-H23; first compound 0.5 µM): 0.352

Structure (SMILES): O=C(O)c1ccc(-c2c[nH]c3ncc(-c4ccccc4)cc23)cc1C1CCCC1 + Cc1cc(Nc2cc(N3CCN(C)CC3)nc(Sc3ccc(NC(=O)C4CC4)cc3)n2)n[nH]1 [Tozasertib] (partner 0.1 µM)
- relative viability (NCI-H522; first compound 0.04 µM): 0.537
- relative viability (NCI-H522; first compound 0.1265 µM): 0.654
- relative viability (NCI-H522; first compound 0.4 µM): 0.579
- relative viability (NCI-H522; first compound 1.265 µM): 0.498
- relative viability (NCI-H1993; first compound 0.04 µM): 0.556
- relative viability (NCI-H1993; first compound 0.1265 µM): 0.604
- relative viability (NCI-H1993; first compound 0.4 µM): 0.55
- relative viability (NCI-H1993; first compound 1.265 µM): 0.606
- relative viability (NCI-H1648; first compound 0.04 µM): 0.545
- relative viability (NCI-H1648; first compound 0.1265 µM): 0.635
- relative viability (NCI-H1648; first compound 0.4 µM): 0.439
- relative viability (NCI-H1648; first compound 1.265 µM): 0.378
- relative viability (NCI-H596; first compound 0.04 µM): 0.863
- relative viability (NCI-H596; first compound 0.1265 µM): 0.802
- relative viability (NCI-H596; first compound 0.4 µM): 0.851
- relative viability (NCI-H596; first compound 1.265 µM): 0.93
- relative viability (NCI-H1623; first compound 0.04 µM): 0.421
- relative viability (NCI-H1623; first compound 0.1265 µM): 0.488
- relative viability (NCI-H1623; first compound 0.4 µM): 0.481
- relative viability (NCI-H1623; first compound 1.265 µM): 0.398
- relative viability (NCI-H23; first compound 0.04 µM): 0.355
- relative viability (NCI-H23; first compound 0.1265 µM): 0.369
- relative viability (NCI-H23; first compound 0.4 µM): 0.364
- relative viability (NCI-H23; first compound 1.265 µM): 0.353

Structure (SMILES): Oc1nc(-c2ccc(C(F)(F)F)cc2)nc2c1CSCC2 [XAV939] + COc1cccc2cc(-c3nc([C@H]4CC[C@H](C(=O)O)CC4)n4ncnc(N)c34)[nH]c12 [OSI-027] (partner 0.5 µM)
- relative viability (NCI-H522; first compound 0.08 µM): 0.564
- relative viability (NCI-H522; first compound 0.253 µM): 0.696
- relative viability (NCI-H522; first compound 0.8 µM): 0.68
- relative viability (NCI-H522; first compound 2.53 µM): 0.643
- relative viability (NCI-H1993; first compound 0.08 µM): 0.563
- relative viability (NCI-H1993; first compound 0.253 µM): 0.493
- relative viability (NCI-H1993; first compound 0.8 µM): 0.596
- relative viability (NCI-H1993; first compound 2.53 µM): 0.461
- relative viability (NCI-H1648; first compound 0.08 µM): 0.273
- relative viability (NCI-H1648; first compound 0.8 µM): 0.236
- relative viability (NCI-H1648; first compound 2.53 µM): 0.225
- relative viability (NCI-H596; first compound 0.08 µM): 0.803
- relative viability (NCI-H596; first compound 0.253 µM): 0.796
- relative viability (NCI-H596; first compound 0.8 µM): 0.768
- relative viability (NCI-H596; first compound 2.53 µM): 0.622
- relative viability (NCI-H1623; first compound 0.08 µM): 0.364
- relative viability (NCI-H1623; first compound 0.253 µM): 0.386
- relative viability (NCI-H1623; first compound 0.8 µM): 0.318
- relative viability (NCI-H1623; first compound 2.53 µM): 0.4
- relative viability (NCI-H23; first compound 0.08 µM): 0.65
- relative viability (NCI-H23; first compound 0.253 µM): 0.555
- relative viability (NCI-H23; first compound 0.8 µM): 0.628
- relative viability (NCI-H23; first compound 2.53 µM): 0.432

Structure (SMILES): C=C1C(=O)O[C@@H](CCCCCCCC)[C@@H]1C(=O)O [C-75] + Cc1cc(Nc2cc(N3CCN(C)CC3)nc(Sc3ccc(NC(=O)C4CC4)cc3)n2)n[nH]1 [Tozasertib] (partner 0.1 µM)
- relative viability (NCI-H522; first compound 0.08 µM): 0.585
- relative viability (NCI-H522; first compound 0.253 µM): 0.598
- relative viability (NCI-H522; first compound 0.8 µM): 0.489
- relative viability (NCI-H522; first compound 8 µM): 0.497
- relative viability (NCI-H1993; first compound 0.08 µM): 0.611
- relative viability (NCI-H1993; first compound 0.253 µM): 0.623
- relative viability (NCI-H1993; first compound 0.8 µM): 0.59
- relative viability (NCI-H1993; first compound 2.53 µM): 0.495
- relative viability (NCI-H1993; first compound 8 µM): 0.529
- relative viability (NCI-H1648; first compound 0.08 µM): 0.387
- relative viability (NCI-H1648; first compound 0.253 µM): 1.26
- relative viability (NCI-H1648; first compound 0.8 µM): 0.465
- relative viability (NCI-H1648; first compound 8 µM): 0.468
- relative viability (NCI-H596; first compound 0.08 µM): 0.889
- relative viability (NCI-H596; first compound 0.253 µM): 1.09
- relative viability (NCI-H596; first compound 0.8 µM): 0.728
- relative viability (NCI-H596; first compound 2.53 µM): 0.83
- relative viability (NCI-H596; first compound 8 µM): 0.821
- relative viability (NCI-H1623; first compound 0.08 µM): 0.471
- relative viability (NCI-H1623; first compound 0.253 µM): 0.417
- relative viability (NCI-H1623; first compound 0.8 µM): 0.477
- relative viability (NCI-H1623; first compound 2.53 µM): 0.419
- relative viability (NCI-H1623; first compound 8 µM): 0.461
- relative viability (NCI-H23; first compound 0.08 µM): 0.36
- relative viability (NCI-H23; first compound 0.253 µM): 0.57
- relative viability (NCI-H23; first compound 0.8 µM): 0.417
- relative viability (NCI-H23; first compound 2.53 µM): 0.339
- relative viability (NCI-H23; first compound 8 µM): 0.254
